One experiment has as its target T1, Tyrosine-protein phosphatase non-receptor type 1 (Homo sapiens, UniProt P18031).
T1 sequence (P18031 whole entry): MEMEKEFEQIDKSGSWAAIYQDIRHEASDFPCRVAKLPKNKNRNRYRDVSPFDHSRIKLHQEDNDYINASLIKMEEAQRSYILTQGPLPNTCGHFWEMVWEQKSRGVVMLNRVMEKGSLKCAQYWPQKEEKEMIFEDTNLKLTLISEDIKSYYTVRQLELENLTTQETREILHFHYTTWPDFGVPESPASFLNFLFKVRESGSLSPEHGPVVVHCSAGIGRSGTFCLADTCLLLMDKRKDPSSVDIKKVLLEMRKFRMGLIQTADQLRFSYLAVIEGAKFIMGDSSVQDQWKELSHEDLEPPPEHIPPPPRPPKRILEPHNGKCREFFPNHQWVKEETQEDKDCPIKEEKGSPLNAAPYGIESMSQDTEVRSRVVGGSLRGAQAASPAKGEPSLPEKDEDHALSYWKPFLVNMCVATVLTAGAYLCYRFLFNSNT
The experiment is described as follows: Inhibition of PTP1B.
As usually defined, the IC50 is the concentration that inhibits the measured activity by half. Lower therefore signals greater potency. `CNC(=O)[C@@H]1Cc2ccc(NS(=O)(=O)O)cc2CN1C(=O)CCc1ccccc1` returned an IC50 of 64.4 µM.
Regarding `CNC(=O)[C@@H]1Cc2ccc(NS(=O)(=O)O)cc2CN1C(=O)CCc1coc2ccccc12`, the IC50 was determined as 36.7 µM.
On the same count and under the same terms, for `Cc1noc([C@@H]2Cc3ccc(NS(=O)(=O)O)cc3CN2C(=O)OC(C)(C)C)n1` the value was 8.23 µM; for `CNC(=O)[C@@H]1Cc2ccc(NS(=O)(=O)O)cc2CN1C(=O)CCc1cccc(Cl)c1`, 101 µM; for `CNC(=O)[C@@H]1Cc2ccc(NS(=O)(=O)O)cc2CN1C(=O)CCc1ccc(C)cc1`, 198 µM.
Still for that read-out and setting: as for `CNC(=O)[C@@H]1Cc2ccc(NS(=O)(=O)O)cc2CN1C(=O)COc1ccccc1`, the figure is 95.3 µM.
On the same count and under the same terms, as for `CC(C)(C)OC(=O)N1Cc2cc(NS(=O)(=O)O)ccc2C[C@H]1C(=O)NCc1ccccc1`, the figure is 120 µM; as for `CNC(=O)[C@@H]1Cc2ccc(NS(=O)(=O)O)cc2CN1C(=O)c1ccccc1`, 286 µM.
`CNC(=O)[C@@H]1Cc2ccc(NS(=O)(=O)O)cc2CN1C(=O)COc1cccc(O)c1C(=O)OC` gave a 50% inhibitory concentration (IC50) of 93.4 µM.
For `CNC(=O)[C@@H]1Cc2ccc(NS(=O)(=O)O)cc2CN1C(=O)CCc1ccc(C(F)(F)F)cc1`, the half-maximal inhibitory concentration (IC50) amounted to 225 µM.
`CNC(=O)[C@@H]1Cc2ccc(NS(=O)(=O)O)cc2CN1C(=O)CCC(=O)O`: the midpoint of inhibition, the IC50, lay at 154 µM.
Still for that read-out and setting: for `CNC(=O)[C@@H]1Cc2ccc(NS(=O)(=O)O)cc2CN1C(=O)[C@H](Cc1ccccc1)NC(=O)OC(C)(C)C` the value was > 500 µM; for `CNC(=O)[C@@H]1Cc2ccc(NS(=O)(=O)O)cc2CN1C(=O)CCc1ccc(OC)cc1`, 242 µM; for `O=C(CCc1cccc(NS(=O)(=O)O)c1)N1CCc2ccc(NS(=O)(=O)O)cc2C1`, 26 µM.
Take `CC(C)(C)OC(=O)N1Cc2cc(NS(=O)(=O)O)ccc2C[C@H]1C(=O)NCCc1ccccc1`: the half-inhibitory concentration (IC50) came to 51.4 µM.
The same measure, in the same setting: as for `CNC(=O)[C@@H]1Cc2ccc(NS(=O)(=O)O)cc2CN1C(=O)CCc1cccc(O)c1`, the figure is 82.1 µM; as for `CC(C)COC(=O)[C@@H]1Cc2ccc(NS(=O)(=O)O)cc2CN1C(=O)OC(C)(C)C`, 16.7 µM; as for `CNC(=O)[C@@H]1Cc2ccc(NS(=O)(=O)O)cc2CN1C(=O)CCCc1ccccc1`, 271 µM.
`CNC(=O)[C@@H]1Cc2ccc(NS(=O)(=O)O)cc2CN1C(=O)CCCCc1ccccc1` yielded an IC50 of 148 µM.
On the same count and under the same terms, as for `CNC(=O)[C@@H]1Cc2ccc(NS(=O)(=O)O)cc2CN1C(=O)/C=C/c1coc2ccccc12`, the figure is 24.9 µM.
Still for that read-out and setting: for `CC(C)(C)OC(=O)N1Cc2cc(NS(=O)(=O)O)ccc2C[C@H]1CO` the value was > 500 µM.
With `COC(=O)[C@@H]1Cc2ccc(NS(=O)(=O)O)cc2CN1C(=O)OC(C)(C)C`, the 50% inhibitory concentration (IC50) amounted to 19 µM.
On the same count and under the same terms, as for `CNC(=O)[C@H](Cc1ccc(NS(=O)(=O)O)cc1)NC(=O)OC(C)(C)C`, the figure is 39.6 µM; as for `CNC(=O)[C@@H]1Cc2ccc(NS(=O)(=O)O)cc2CN1C(=O)CCc1cccc(C(F)(F)F)c1`, 146 µM.
For `CNC(=O)[C@@H]1Cc2ccc(NS(=O)(=O)O)cc2CN1C(=O)CCOc1ccccc1`, the half-maximal inhibitory concentration (IC50) turned out to be 83.6 µM.
Same read-out and setting: as for `CNC(=O)[C@@H]1Cc2ccc(NS(=O)(=O)O)cc2CN1C(=O)CCc1cc(NS(C)(=O)=O)cc(C(F)(F)F)c1`, the figure is 184 µM; as for `CNC(=O)[C@@H]1Cc2ccc(NS(=O)(=O)O)cc2CN1C(=O)NCc1ccccc1`, 164 µM.
`CNC(=O)[C@@H]1Cc2ccc(NS(=O)(=O)O)cc2CN1C(=O)OC(C)(C)C` displayed a concentration for half-maximal inhibition (IC50) of 42.5 µM.

The next experiment deals with T2, Tyrosine-protein phosphatase non-receptor type 2 (Homo sapiens, UniProt P17706).
T2 sequence (P17706 whole entry): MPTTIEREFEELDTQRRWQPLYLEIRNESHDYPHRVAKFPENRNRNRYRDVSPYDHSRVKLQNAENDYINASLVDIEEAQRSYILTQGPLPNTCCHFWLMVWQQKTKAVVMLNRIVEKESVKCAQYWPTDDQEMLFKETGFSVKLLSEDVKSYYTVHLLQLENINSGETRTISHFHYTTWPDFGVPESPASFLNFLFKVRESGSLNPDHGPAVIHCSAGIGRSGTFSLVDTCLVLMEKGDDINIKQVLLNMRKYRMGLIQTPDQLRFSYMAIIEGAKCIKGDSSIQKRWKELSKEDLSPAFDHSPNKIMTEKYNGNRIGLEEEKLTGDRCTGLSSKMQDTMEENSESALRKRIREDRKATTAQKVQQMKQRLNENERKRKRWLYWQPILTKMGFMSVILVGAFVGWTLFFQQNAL
The experiment is described as follows: Inhibition of TCPTP.
Take `O=C(CCc1cccc(NS(=O)(=O)O)c1)NCc1cccc(NS(=O)(=O)O)c1`: the IC50 worked out at 204 µM.
Same read-out and setting: for `O=C(CCc1cccc(NS(=O)(=O)O)c1)N1CCc2ccc(NS(=O)(=O)O)cc2C1` the value was 68.6 µM.
The same measure, in the same setting: as for `CNC(=O)[C@H](Cc1ccc(NS(=O)(=O)O)cc1)NC(=O)OC(C)(C)C`, the figure is 80.1 µM; as for `CNC(=O)[C@@H]1Cc2ccc(NS(=O)(=O)O)cc2CN1C(=O)OC(C)(C)C`, 169 µM.

The values are drawn from ChEMBL document CHEMBL1139672, “1,2,3,4-Tetrahydroisoquinolinyl sulfamic acids as phosphatase PTP1B inhibitors” (Bioorg Med Chem Lett, 2006).
